Patent US9326986B2, “Quinazolinone, quinolone and related analogs as sirtuin modulators” (GLAXOSMITHKLINE LLC, priority 2008, dated 2016)

Molecular target: T1, SIRT1 (Homo sapiens, UniProt Q96EB6)
T1 sequence (Q96EB6 1-747): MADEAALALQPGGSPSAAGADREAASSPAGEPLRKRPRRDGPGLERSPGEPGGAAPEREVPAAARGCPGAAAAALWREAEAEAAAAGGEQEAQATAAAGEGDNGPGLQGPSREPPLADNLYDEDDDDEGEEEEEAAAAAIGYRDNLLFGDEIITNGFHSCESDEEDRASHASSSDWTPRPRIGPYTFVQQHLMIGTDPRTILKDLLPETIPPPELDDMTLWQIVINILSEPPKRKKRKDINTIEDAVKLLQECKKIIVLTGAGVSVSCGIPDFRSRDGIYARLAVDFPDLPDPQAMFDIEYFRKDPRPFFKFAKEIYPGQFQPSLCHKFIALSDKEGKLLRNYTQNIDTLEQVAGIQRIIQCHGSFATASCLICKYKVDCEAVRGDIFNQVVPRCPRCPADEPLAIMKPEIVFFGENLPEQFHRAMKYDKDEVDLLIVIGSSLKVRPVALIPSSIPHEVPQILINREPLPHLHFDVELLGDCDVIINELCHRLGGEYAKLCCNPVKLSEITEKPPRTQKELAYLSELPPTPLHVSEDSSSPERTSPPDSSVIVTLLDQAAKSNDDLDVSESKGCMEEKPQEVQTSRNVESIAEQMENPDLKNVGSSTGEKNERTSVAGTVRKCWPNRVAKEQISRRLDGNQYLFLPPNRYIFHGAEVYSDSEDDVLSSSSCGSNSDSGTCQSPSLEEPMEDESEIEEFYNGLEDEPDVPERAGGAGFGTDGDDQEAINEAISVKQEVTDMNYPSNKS
Assay: Mass spectrometry based assay to identify modulators of SIRT1 activity (deacetylation of p53-based acetylated peptide)
Assay type: biochemical
Settings: 10 nM SIRT1, 0.5 μM peptide substrate, 120 μM βNAD+, 25 minutes at 25° C.; for EC1.5 μM: SIRT1 activation

Row | SMILES | % Fold Act. (percent maximum fold activation) | EC1.5 μM
1 | Cn1c(-c2cccc(C(F)(F)F)c2)nc2c(C(=O)Nc3cncc(CN4CCOCC4)c3)cccc2c1=O [Compound 300] | A (Fold activation>200%) | B (EC1.5 1-25 μM)
2 | Cn1c(-c2cccc(C(F)(F)F)c2)nc2c(C(=O)Nc3ccc(CN4CCOCC4)nc3)cccc2c1=O [Compound 301] | A (Fold activation>200%) | B (EC1.5 1-25 μM)
3 | Cn1c(-c2cccc(C(F)(F)F)c2)nc2c(C(=O)Nc3cccc(CN4CCOCC4)c3)cccc2c1=O [Compound 302] | A (Fold activation>200%) | A (EC1.5<1.0 μM)
4 | Cn1c(-c2cccc(C(F)(F)F)c2)nc2c(C(=O)Nc3ccncn3)cccc2c1=O [Compound 303] | A (Fold activation>200%) | B (EC1.5 1-25 μM)
5 | Cn1c(-c2cccc(C(F)(F)F)c2)nc2c(C(=O)Nc3ccnc(N4CCOCC4)c3)cccc2c1=O [Compound 304] | A (Fold activation>200%) | A (EC1.5<1.0 μM)
6 | Cn1c(-c2cccc(C(F)F)c2)nc2c(NC(=O)c3cnccn3)cccc2c1=O [Compound 310] | A (Fold activation>200%) | A (EC1.5<1.0 μM)
7 | Cn1c(-c2ccccc2OC(F)F)nc2c(NC(=O)c3cnccn3)cccc2c1=O [Compound 312] | A (Fold activation>200%) | A (EC1.5<1.0 μM)
8 | Cn1c(-c2cccc(OC(F)F)c2)nc2c(NC(=O)c3cnccn3)cccc2c1=O [Compound 315] | A (Fold activation>200%) | A (EC1.5<1.0 μM)
9 | O=C(Nc1cccc2c(=O)[nH]c(-c3ccccc3C(F)(F)F)nc12)c1cnccn1 [Compound 317] | A (Fold activation>200%) | A (EC1.5<1.0 μM)
10 | O=C(Nc1ccccn1)c1cccc2c(=O)[nH]c(-c3ccccc3OC(F)(F)F)nc12 [Compound 320] | A (Fold activation>200%) | A (EC1.5<1.0 μM)
11 | O=C(Nc1ccccn1)c1cccc2c(=O)[nH]c(-c3ccccc3C(F)(F)F)nc12 [Compound 321] | A (Fold activation>200%) | B (EC1.5 1-25 μM)
12 | Cn1c(-c2ccccc2C(F)F)nc2c(C(=O)Nc3ccccn3)cccc2c1=O [Compound 322] | A (Fold activation>200%) | B (EC1.5 1-25 μM)
13 | O=C(Nc1ccccn1)c1cccc2c(=O)[nH]c(-c3cccc(OC(F)F)c3)nc12 [Compound 325] | B (Fold Activation<200%) | C (EC1.5>25 μM)
14 | Cn1c(-c2ccccc2OC(F)F)nc2c(C(=O)Nc3ccccn3)cccc2c1=O [Compound 327] | A (Fold activation>200%) | B (EC1.5 1-25 μM)
15 | Cn1c(-c2cccc(C(F)(F)F)c2)nc2c(NC(=O)c3cccc(N4CCOCC4)c3)cccc2c1=O [Compound 330] | A (Fold activation>200%) | A (EC1.5<1.0 μM)
16 | CN1CCCC1C(=O)Nc1cccc2c(=O)n(C)c(-c3cccc(C(F)(F)F)c3)nc12 (stereo not shown) [Compound 331] | B (Fold Activation<200%) | B (EC1.5 1-25 μM)

The next lines start with the values.

Row | % Fold Act. (percent maximum fold activation) | EC1.5 μM | SMILES
17 | A (Fold activation>200%) | A (EC1.5<1.0 μM) | Cn1c(-c2cccc(C(F)(F)F)c2)nc2c(C(=O)Nc3nnc(C(C)(C)C)s3)cccc2c1=O [Compound 297]
18 | A (Fold activation>200%) | A (EC1.5<1.0 μM) | Cc1nc(NC(=O)c2cccc3c(=O)n(C)c(-c4cccc(C(F)(F)F)c4)nc23)sc1C [Compound 298]
19 | A (Fold activation>200%) | B (EC1.5 1-25 μM) | Cn1c(-c2cccc(C(F)(F)F)c2)nc2c(C(=O)Nc3nncs3)cccc2c1=O [Compound 299]
20 | A (Fold activation>200%) | B (EC1.5 1-25 μM) | Cn1cnc(NC(=O)c2cccc3c(=O)n(C)c(-c4cccc(C(F)(F)F)c4)nc23)n1 [Compound 305]
21 | A (Fold activation>200%) | A (EC1.5<1.0 μM) | Cc1cc(C)nc(NC(=O)c2cccc3c(=O)n(C)c(-c4cccc(C(F)(F)F)c4)nc23)c1 [Compound 306]
22 | A (Fold activation>200%) | B (EC1.5 1-25 μM) | Cn1c(-c2cccc(C(F)(F)F)c2)nc2c(C(=O)Nc3ccnc(CN4CCOCC4)n3)cccc2c1=O [Compound 307]
23 | A (Fold activation>200%) | B (EC1.5 1-25 μM) | Cn1c(-c2cccc(C(F)(F)F)c2)nc2c(C(=O)Nc3ncc(CN4CCOCC4)s3)cccc2c1=O [Compound 308]
24 | A (Fold activation>200%) | A (EC1.5<1.0 μM) | Cn1c(-c2cccc(C(F)(F)F)c2)nc2c(C(=O)Nc3nc(CN4CCOCC4)cs3)cccc2c1=O [Compound 309]
25 | B (Fold Activation<200%) | C (EC1.5>25 μM) | O=C(Nc1cccc2c(=O)[nH]c(-c3cccc(C(F)F)c3)nc12)c1cnccn1 [Compound 311]
26 | A (Fold activation>200%) | A (EC1.5<1.0 μM) | O=C(Nc1cccc2c(=O)[nH]c(-c3ccccc3OC(F)F)nc12)c1cnccn1 [Compound 313]
27 | A (Fold activation>200%) | A (EC1.5<1.0 μM) | Cn1c(-c2ccccc2C(F)F)nc2c(NC(=O)c3cnccn3)cccc2c1=O [Compound 314]
28 | B (Fold Activation<200%) | C (EC1.5>25 μM) | O=C(Nc1cccc2c(=O)[nH]c(-c3cccc(OC(F)F)c3)nc12)c1cnccn1 [Compound 316]
29 | A (Fold activation>200%) | A (EC1.5<1.0 μM) | O=C(Nc1cccc2c(=O)[nH]c(-c3ccccc3OC(F)(F)F)nc12)c1cnccn1 [Compound 318]
30 | B (Fold Activation<200%) | C (EC1.5>25 μM) | O=C(Nc1ccccn1)c1cccc2c(=O)[nH]c(-c3cccc(C(F)F)c3)nc12 [Compound 319]
31 | B (Fold Activation<200%) | C (EC1.5>25 μM) | Cn1c(-c2cccc(C(F)F)c2)nc2c(C(=O)Nc3ccccn3)cccc2c1=O [Compound 323]
32 | A (Fold activation>200%) | A (EC1.5<1.0 μM) | O=C(Nc1ccccn1)c1cccc2c(=O)[nH]c(-c3ccccc3C(F)F)nc12 [Compound 324]
33 | A (Fold activation>200%) | A (EC1.5<1.0 μM) | Cn1c(-c2cccc(OC(F)F)c2)nc2c(C(=O)Nc3ccccn3)cccc2c1=O [Compound 326]
34 | A (Fold activation>200%) | B (EC1.5 1-25 μM) | O=C(Nc1ccccn1)c1cccc2c(=O)[nH]c(-c3ccccc3OC(F)F)nc12 [Compound 328]
35 | A (Fold activation>200%) | A (EC1.5<1.0 μM) | O=C(Nc1cccc2c(=O)[nH]c(-c3ccccc3C(F)F)nc12)c1cnccn1 [Compound 329]
